# Test results published in patent US20260191194A1, “OXABICYCLOALKANE COMPOUNDS, PREPARATION METHOD THEREFOR, AND HERBICIDAL COMPOSITION AND USE THEREOF” (QINGDAO KINGAGROOT CHEMICAL COMPOUND CO., LTD., priority 2022, published 2026).
# Key:
# Type in all cases: in vivo
# [1] = test system: Echinochloa crus-galli var. austrojaponensis; experiment: Activity test of compositions, early post-emergence foliage spray (F-EP); details: 21 days after treatment; for pest or weed control at 300 g/ha: B alone 300 g a.i./ha
# Procedure: (§1) The required active ingredient B was purchased from a reagent company or synthesized by a known method. The technical materials were all dissolved with acetone solvents and diluted with an aqueous solution of 0.1% Tween 80 emulsifier, which were to be used immediately after dilution.
# (§2) Weeds were cultivated by a pot culture method. […] Weed seeds with plump and uniform grains were selected, soaked in lukewarm water at 25° C. for 6 hours, and accelerated to germinate in a 28° C. biochemical incubator (in darkness). The weed seeds that had just germinated were evenly placed on the surface of the soil and then covered with 0.5-1 cm soil according to the sizes of seeds.
# (§3) The culture was carried out in a controllable sunlight greenhouse at 20 to 30° C., in natural light, and with relative humidity of 57% to 72%.
# (§4) Each treatment was repeated 4 times. Four pots with 20 weed seeds sowed per pot were treated each time.
# (§5) The agents were used once in total in the experiment. In the stage of 1-2 leaves, the weeds were thinned out to maintain 10 strains per treatment for later use.
# (§6) The well-cultured test materials were evenly placed on a platform with an area of 0.5 m^2, and foliage spraying was carried out by the 3WP-2000-type walking spray tower at a dosage of 450 kg/ha and a spray pressure of 0.3 MPa. After all the solution was sprayed, the air valve was closed, and 30 seconds later, the door of the spray tower was opened, and the nutritional bowl was taken out. Then the air valve was opened, and the spray tube was cleaned by spraying 50 ml of water. The test materials were transferred to and routinely cultured in a greenhouse after the treatment.
# (§7) A method for investigating absolute numbers was employed. Whole seedlings of survival weeds were cut off with a blade along the soil surface, and the fresh weight of the weeds was weighed using an analytical balance. For dead weeds, the fresh weight thereof was zero.
# (§8) The investigation was performed 21 days after the treatment for once in total.
# (§9) The theoretical fresh weight inhibition rate of a mixed combination of each treatment was calculated by the Gowing method (E0=X+Y−X*Y/100). […] An optimal ratio was determined according to the actual control effects, characteristics of herbicides, and balance of the formulation. In the formula, X represents the fresh weight inhibition rate of the active ingredient A in a dosage of P; Y represents the fresh weight inhibition rate of the active ingredient B in a dosage of Q. The statistical results are shown in Table 4.
# [2] = test system: Echinochloa glabrescens; experiment: Activity test of compositions, soil sealing treatment (S); details: B alone 150 g a.i./ha, 21 days after treatment
# Procedure: as §1
# (§10) Weeds were cultivated in a controllable sunlight greenhouse at 20 to 30° C., in natural light, and with relative humidity of 57% to 72%. […] The test soil was quantitatively filled to 3/4 of the pot, and then watered from the bottom of the pot to completely wet the soil to saturation. The test weed seeds were accelerated to just germinate, and then evenly and quantitatively sowed on the soil surface, covered with 0.5-1 cm soil according to the sizes of the seeds, and ready for use 72 hours after sowing.
# as §4
# as §6, with “well-sowed” for “well-cultured”, “water.” for “water. The test materials were transferred to and routinely cultured in a greenhouse after the treatment.”
# as §7, §8, §9
# [3] = test system: Echinochloa glabrescens; experiment: Activity test of compositions, early post-emergence foliage spray (F-EP); details: 21 days after treatment
# Procedure: as §1, §2, §3, §4, §5, §6, §7, §8, §9
# [4] = test system: Cyperus glomeratus; experiment: Activity test of compositions, soil sealing treatment (S); details: 21 days after treatment
# Procedure: as §1, §10, §4
# as §6, with “well-sowed” for “well-cultured”, “water.” for “water. The test materials were transferred to and routinely cultured in a greenhouse after the treatment.”
# as §7, §8, §9
# [5] = test system: Digitaria ischaemum; experiment: as above; details: 21 days after treatment
# Excerpt: as §1
# The test soil was quantitatively filled to 3/4 of the pot, and then watered from the bottom of the pot to completely wet the soil to saturation. The test weed seeds were accelerated to just germinate, and then evenly and quantitatively sowed on the soil surface, covered with 0.5-1 cm soil according to the sizes of the seeds, and ready for use 72 hours after sowing.
# as §4
# as §6, with “well-sowed” for “well-cultured”, “water.” for “water. The test materials were transferred to and routinely cultured in a greenhouse after the treatment.”
# as §7, §8, §9
# [6] = test system: Cyperus glomeratus; experiment: Activity test of compositions, early post-emergence foliage spray (F-EP); details: B alone 900 g a.i./ha, 21 days after treatment
# Procedure: as §1, §2, §3, §4, §5, §6, §7, §8, §9
# [7] = test system: Oxybasis glauca; experiment: Activity test of compositions, soil sealing treatment (S); details: B alone 7.5 g a.i./ha, 21 days after treatment
# Procedure: as §1, §10, §4
# as §6, with “well-sowed” for “well-cultured”, “water.” for “water. The test materials were transferred to and routinely cultured in a greenhouse after the treatment.”
# as §7, §8, §9
# [8] = Echinochloa crus-galli, 504 h, read-out: Control effect of B applied alone in a corresponding dose
compound,measurement,setting,value
CC(C)c1ccc(NC(=O)N(C)C)cc1 [isoproturon],pest or weed control at 300 g/ha,[1]; [8],31.3%
CS(=O)(=O)c1cc(C(F)(F)F)ccc1C(=O)c1cnoc1C1CC1 [isoxaflutole],pest or weed control at 30 g/ha,"[1]; Echinochloa crus-galli, 504 h, B alone 30 g a.i./ha (with A 60), read-out: Control effect of B applied alone in a corresponding dose",47.8%
CN(C(=O)COc1nc2ccccc2s1)c1ccccc1 [mefenacet],Control effect of B applied alone in a corresponding dose,[2],37.9
CS(=O)(=O)c1ccc(C(=O)C2C(=O)CCCC2=O)c([N+](=O)[O-])c1 [mesotrione],pest or weed control at 60 g/ha,"[1]; Echinochloa crus-galli, 504 h, B alone 60 g a.i./ha (with A 60), read-out: Control effect of B applied alone in a corresponding dose",51.7%
C[C@@H](Oc1ccc(Oc2nc3ccc(Cl)cc3o2)cc1)C(=O)N(C)c1ccccc1F [metamifop],Control effect of B applied alone in a corresponding dose,[3]; B alone 75 g a.i./ha,58.8%
CSc1nnc(C(C)(C)C)c(=O)n1N [metribuzin],pest or weed control at 150 g/ha,"[1]; Echinochloa crus-galli, 504 h, B alone 150 g a.i./ha, read-out: Control effect of B applied alone in a corresponding dose",42.9%
CC(C)Oc1cc(-n2nc(C(C)(C)C)oc2=O)c(Cl)cc1Cl [oxadiazon],Control effect of B applied alone in a corresponding dose,[4]; B alone 90 g a.i./ha,32.4%
CC1=C(c2ccccc2)C(=O)N(C(C)(C)c2cc(Cl)cc(Cl)c2)CO1 [oxaziclomefone],Control effect of B applied alone in a corresponding dose,[4]; B alone 22.5 g a.i./ha,58.5%
CCOc1cc(Oc2ccc(C(F)(F)F)cc2Cl)ccc1[N+](=O)[O-] [oxyfluorfen],Control effect of B applied alone in a corresponding dose,[4]; B alone 45 g a.i./ha,37.2%
CCC(CC)Nc1c([N+](=O)[O-])cc(C)c(C)c1[N+](=O)[O-] [pendimethalin],Control effect of B applied alone in a corresponding dose,[5]; B alone 375 g a.i./ha,65.7
COc1cnc(OC)n2nc(NS(=O)(=O)c3c(OCC(F)F)cccc3C(F)(F)F)nc12 [penoxsulam],Control effect of B applied alone in a corresponding dose,[4]; B alone 7.5 g a.i./ha,26.4%
CCCOCCN(C(=O)CCl)c1c(CC)cccc1CC [pretilachlor],Control effect of B applied alone in a corresponding dose,[2],43.6
CCCC(=NOCC(C)Oc1ccc(Cl)cc1)C1=C(O)CC(C2CCCSC2)CC1=O (stereo not drawn) [profoxydim],Control effect of B applied alone in a corresponding dose,[3]; B alone 45 g a.i./ha,54.7%
CSc1nc(NC(C)C)nc(NC(C)C)n1 [prometryn],pest or weed control at 300 g/ha,[1]; [8],41%
CCC(=O)Nc1ccc(Cl)c(Cl)c1 [propanil],Control effect of B applied alone in a corresponding dose,[6],19.7
C#CCN(C)c1c(C#N)cnn1-c1nn2c(c1Cl)CCCC2 [pyraclonil],Control effect of B applied alone in a corresponding dose,[4]; B alone 45 g a.i./ha,48.6%
"CCOC(=O)c1cnn(C)c1S(=O)(=O)NC(=O)Nc1nc(OC)cc(OC)n1 [pyrazosulfuronethyl, pyrazosulfuron-ethyl]",Control effect of B applied alone in a corresponding dose,[4]; B alone 7.5 g a.i./ha,29.8%
Cn1nc(C(F)(F)F)c(CS(=O)(=O)C2=NOC(C)(C)C2)c1OC(F)F [pyroxasulfone],Control effect of B applied alone in a corresponding dose,[5]; B alone 45 g a.i./ha,46.3
CS(=O)(=O)c1ccc(C(=O)C2C(=O)CCCC2=O)c(Cl)c1COCC1CCCO1 (stereo not drawn) [tefuryltrione],Control effect of B applied alone in a corresponding dose,[1]; B alone 15 g a.i./ha,51.7%
CCNc1nc(Cl)nc(NC(C)(C)C)n1 [terbuthylazine],pest or weed control at 225 g/ha,"[1]; Echinochloa crus-galli, 504 h, B alone 225 g a.i./ha, read-out: Control effect of B applied alone in a corresponding dose",48.4%
"COC(=O)c1sccc1S(=O)(=O)NC(=O)Nc1nc(C)nc(OC)n1 [thifensulfuronmethyl, thifensulfuron-methyl]",Control effect of B applied alone in a corresponding dose,[7],68.6
CC(C)N(C(=O)SCC(Cl)=C(Cl)Cl)C(C)C [triallate],Control effect of B applied alone in a corresponding dose,[5]; B alone 300 g a.i./ha,38.4
Cc1cc(C)n(Cc2c(S(C)(=O)=O)ccc(C(=O)c3c(C)nn(C)c3OC(=O)c3cn(C)nc3C)c2Cl)n1 [tripyrasulfone],Control effect of B applied alone in a corresponding dose,[1]; B alone 60 g a.i./ha,50.4%
oxadiargyl,Control effect of B applied alone in a corresponding dose,[4]; B alone 45 g a.i./ha,42.5%
